Results taken from patent US9650616B2, “Methods for increasing grain yield” (University of Florida Research Foundation, Inc., priority 2014, dated 2017).
Numbering of substitutions follows the chain as printed.

Assays:
[1] = molecular target: T1, maize endosperm AGPase variant T142F (Zea mays, UniProt P55241+Q84PF5, T142F); conditions: cited from earlier work
T1 construct: data of Boehlein et al., 2013
T1 sequence (P55241 46-516 T142F): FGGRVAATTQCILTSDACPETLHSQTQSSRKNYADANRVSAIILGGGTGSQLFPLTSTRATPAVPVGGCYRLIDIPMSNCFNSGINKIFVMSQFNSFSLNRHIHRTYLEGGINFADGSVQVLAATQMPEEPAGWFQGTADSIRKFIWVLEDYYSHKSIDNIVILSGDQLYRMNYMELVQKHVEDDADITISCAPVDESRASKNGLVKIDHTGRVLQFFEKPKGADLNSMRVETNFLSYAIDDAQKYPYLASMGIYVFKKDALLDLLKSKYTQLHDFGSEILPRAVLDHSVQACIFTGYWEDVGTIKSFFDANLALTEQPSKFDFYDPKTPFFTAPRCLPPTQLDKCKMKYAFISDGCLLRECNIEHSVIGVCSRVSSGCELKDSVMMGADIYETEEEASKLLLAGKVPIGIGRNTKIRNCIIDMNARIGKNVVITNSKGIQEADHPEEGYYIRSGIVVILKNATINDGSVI
T1 sequence (Q84PF5 1-474): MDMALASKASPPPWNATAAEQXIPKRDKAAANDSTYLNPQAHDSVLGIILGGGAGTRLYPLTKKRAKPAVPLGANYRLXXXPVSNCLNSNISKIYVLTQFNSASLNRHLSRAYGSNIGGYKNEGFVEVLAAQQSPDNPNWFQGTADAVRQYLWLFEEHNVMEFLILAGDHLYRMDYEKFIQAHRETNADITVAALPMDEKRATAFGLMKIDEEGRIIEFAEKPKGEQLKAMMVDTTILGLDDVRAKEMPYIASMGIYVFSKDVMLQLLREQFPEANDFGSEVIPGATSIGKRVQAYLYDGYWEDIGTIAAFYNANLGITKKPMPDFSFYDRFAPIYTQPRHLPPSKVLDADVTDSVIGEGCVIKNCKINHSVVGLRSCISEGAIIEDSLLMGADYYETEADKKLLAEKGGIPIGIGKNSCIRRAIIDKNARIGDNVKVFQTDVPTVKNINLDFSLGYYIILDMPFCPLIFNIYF

[2] = molecular target: T2, maize endosperm AGPase, evolutionary mutant SH2-E (Zea mays, UniProt P55241+Q84PF5); assay: Apparent kinetic constants with 3-PGA, 37° C., SH2-E; assay type: biochemical; conditions: read-out: ATP Km
T2 construct: data of Boehlein et al., 2013
Protocol: (§1) An endpoint assay was used to determine the rate of the AGPase reaction by coupling the formation of PPi to a decrease in NADH concentration (Boehlein et al., 2008). […] The Michaelis constants (Km) were obtained by varying one substrate in the presence of saturating concentrations of the second substrate. The activation constants were obtained by varying the activator at fixed levels of both substrates. All reactions were performed at 37° C. and mixes were prewarmed before starting the reaction with enzyme. […] The absorbance at 340 nm was monitored after 30 min and the amount of PPi produced was determined from a standard curve using PPi in complete reaction mixtures lacking AGPase. Blank samples contained complete reaction mixtures without enzyme and the change in absorbance between the blank and the reaction was used to calculate the amount of PPi produced. […]
(§2) The apparent Michaelis constant and maximum velocity of each reaction was calculated from a V vs. S plots using nonlinear regression analysis and the following equation, v=VmaxS/(Km+S), where v is the measured velocity, Vmax is the maximum velocity, S is the substrate concentration. […]
Each mutant, comprising 1, 2, 3 or 4 changes, was grown in a large scale culture, expressed and purified according to standard procedures (Boehlein et al., 2005). […] Next, the activation constant, Ka, was determined for each of the mutant enzymes. […]

[3] = system: maize endosperm AGPase, wild type (Maize-wt); conditions: absence of 3-PGA, cited from earlier work
[4] = molecular target: T3, maize endosperm AGPase, large subunit variant GGR (Q96G, D161G, A443R; numbering of SEQ ID NO: 20) (Zea mays, UniProt P55241+Q84PF5, A443R/D161G/Q96G); assay: Apparent kinetic constants with 3-PGA, 37° C., GGR; assay type: biochemical; conditions: read-out: ATP Km
T3 sequence (P55241 46-516 A443R/D161G/Q96G): T1 sequence (P55241 46-516 T142F) with Q51G, F97T, D116G, A398R
T3 sequence (Q84PF5 1-474): T1 sequence (Q84PF5 1-474)
Excerpt: The small and large subunit plasmids of maize endosperm AGPase (pMONcBt2 and pMONcSh2, respectively) (Giroux et al., 1996) were expressed in E. coli AC70R1-504 cells (Iglesias et al., 1993) as previously described (Boehlein et al., 2008).
as §1, §2

T2 sequence (P55241 46-516, change not shown, one chain of several): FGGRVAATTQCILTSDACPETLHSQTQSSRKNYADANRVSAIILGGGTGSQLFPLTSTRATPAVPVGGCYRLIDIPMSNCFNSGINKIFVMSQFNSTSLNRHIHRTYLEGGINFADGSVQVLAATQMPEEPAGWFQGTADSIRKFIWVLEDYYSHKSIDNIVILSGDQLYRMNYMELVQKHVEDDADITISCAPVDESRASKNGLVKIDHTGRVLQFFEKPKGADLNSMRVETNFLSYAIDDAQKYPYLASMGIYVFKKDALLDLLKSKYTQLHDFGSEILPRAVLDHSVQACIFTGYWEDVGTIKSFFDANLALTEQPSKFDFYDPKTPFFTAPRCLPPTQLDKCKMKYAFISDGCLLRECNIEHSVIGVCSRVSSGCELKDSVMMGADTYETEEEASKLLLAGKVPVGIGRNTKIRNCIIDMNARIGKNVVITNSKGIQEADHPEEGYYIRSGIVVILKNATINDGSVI

## Nc1ncnc2c1ncn2[C@@H]1O[C@H](COP(=O)(O)OP(=O)(O)OP(=O)(O)O)[C@@H](O)[C@H]1O [ATP]
[1]; absence of 3-PGA
  kcat: 53.8 s⁻¹
[1]; read-out: ATP Km, absence of 3-PGA
  Km: 1730 µM
[1]; read-out: Kia (dissociation constant for the E-ATP complex), absence of 3-PGA
  Kd: 1500 µM
[2]
  Km: 100 µM
[3]; apparent Km in the presence of 15 mM G-1-P, read-out: ATP Km (apparent)
  Km: 4000 µM
[3]
  kcat: 35.2 s⁻¹
[4]
  Km: 57 µM
